Data set [1] has as its system TAV and PAV of the target coronary artery. The data set is described as follows: CHI SQUARE IVUS post-hoc analysis by SAHMRI (second approach). Type of data set: in vivo, human. Here is the method:
A post-hoc analysis of the IVUS data was performed by the South Australian Health & Medical Research Institute (SAHMRI).
In this case there were similar frame-counts between baseline and follow-up. The number of frames selected were normally distributed (FIG. 3).

The nature of data set [2]: CHI SQUARE plasma ApoA-I, phospholipid and total cholesterol after infusion. Type of data set: in vivo, human. From the text:
504 subjects presenting with acute chest pain or other angina equivalent symptoms, indicative of a diagnosis of ST segment elevation myocardial infarction, non-ST elevation myocardial infarction or unstable angina were enrolled. To be eligible, subjects must have angiographic evidence of coronary artery disease as defined by at least one lesion in any of the three major native coronary arteries that has >20% reduction in lumen diameter by angiographic visual estimation or prior history of percutaneous coronary intervention (“PCI”). The target vessel for PCI was not the target coronary artery for research IVUS, and any vessel with previous PCI could not be used as the target coronary artery.

Data set [3] concerns ABCA1 protein in J774 macrophages. The data set is described as follows: ABCA1 protein level in J774 macrophages (SDS PAGE, anti-ABCA1). It is filed as cell-based, mouse. The conditions noted are these: Study H; 250 μg/mL, 6 hours.
Data set [4] has as its system ABCA1 mRNA in Hepa1-6 (mouse hepatocytes). Briefly: ABCA1 mRNA in Hepa1-6 hepatocytes. It is filed as cell-based. The note with it: Study K, 250 μg/mL, 6 hours. The method, then: HepG2 (human hepatocytes) and Hepa1-6 (mouse hepatocytes) were seeded on 6 well plates (300,000 cells/well) in DMEM 10% FCS. […] Gene expression was assayed using the protocols described in Sections 8.3.2 (RNA extraction); 8.3.4 (reverse transcription), and 8.3.5 (qPCR). ABCA1 (Taqman probe Hs01059118.m1 and Mm00442646.m1 for respectively HepG2 and Hepa1-6) and SR-BI (Taqman probe Hs00969821.m1 and Mm00450234.m1 for respectively HepG2 and Hepa1-6) expression was determined according to the manufacturer's protocol. The reference gene used is HPRT1 (Taqman probe: Mm00446968.m1) for Hepa1-6 and GAPDH (Taqman probe: Hs03929097.g1) for HepG2 cells.

For another data set, the system named is ABCA1 in mouse liver. The data set is described as follows: ABCA1 protein content in mouse liver. Type of data set: in vivo. The note with it: 24 hours after the last injection; increasing concentrations. Here is the method: This study examined the SR-BI and ABCA1 protein content in the liver 24 hours after the last injection of CER-001. A piece of liver (50 mg) was lysed in PBS (500 μL) by brief sonication. The sample was centrifuged (800×g for 10 minutes) and the pellet was discarded. The supernatant was centrifuged for 30 minutes at 16,000×g at 4° C. and the pellet was solubilized with PBS 1% Triton X100 (200 μL). 10 μg of solubilized pellet was loaded on SDS PAGE 10% and ABCA1 expression (ab7360—dilution 1/1000) or SR-BI expression (ab24603—dilution 1/1000) was quantified using imageJ® software.

The test system of data set [5] is diet-induced atherosclerosis in LDL receptor knock-out mice. The note with it: several infusions; cited from earlier work.
For data set [6] the following is noted: cited from earlier work.
Another data set relates to J774 macrophages. The data set is described as follows: Radioactive cholesterol efflux from J774 macrophages. The note with it: Study N; 0.03 to 10 mM; 6 hours. Type of data set: cell-based, mouse. The method, then:
J774 macrophages obtained from ATCC (No TIB-67) were grown in Dulbecco's modified Eagle's medium (DMEM, Invitrogen) supplemented with 10% FBS (foetal bovine serum, Invitrogen), 100 units/ml penicillin G (Invitrogen), and 100 units/ml streptomycin (Invitrogen) at 37° C. with 5% CO2. Cells were seeded on 24-well plates (Falcon) at 40,000 cells/well and grown for 32 hours in 2 ml DMEM 10% FBS. LDL oxidation: 1 ml LDL is dialyzed against 4 L PBS (twice, 12 hours each) in Slide-A-Lyzer™ Mini Dialysis Units 7000MWCO (Pierce).
[1] After dialysis, proteins-LDL are quantified with Coomassie protein assay (#1856209, ThermoScientific) using albumin (#23209, ThermoScientific) as standards. Absorbance is read with Glomax multi detection System (Promega) at 600 nm. […] After dialysis, proteins-LDL are quantified by same method as. […]
The efflux is induced by adding different acceptors for 6 hours (or different time between 1 to 24 hours) in 250 μl DMEM without FBS. Radioactivity was measured by adding the medium (0.25 ml) to Super Mix (0.75 ml) (1200-439 Perkin-Elmer), mixed in 24 well flexible microplate (1450-402 Perkin-Elmer) and radioactivity was measured with MicroBeta® Trilux (2 minutes counting time). The intracellular [^3H] cholesterol was extracted by 0.2 ml hexane-isopropanol (3:2) (incubation 0.5 hours) and measured by liquid scintillation counting. […]

The mark [7] stands for this setting: baseline PAV equal to or greater than 30, mITT, 3 mg/kg (n = 58).
The mark [8] stands for this setting: baseline PAV equal to or greater than 30, mITT, 6 mg/kg (n = 78).
The mark [9] stands for this setting: baseline PAV equal to or greater than 30, mITT, 12 mg/kg (n = 66).
[10] abbreviates: Infusion 1, preserved at Infusion 6.

Consider “CER-001: engineered recombinant human apolipoprotein A-I HDL with sphingomyelin and DPPG; protein-to-phospholipid ratio 1:2.7, 97% Sph and 3% DPPG”, for which, in data set [1] (baseline PAV equal to or greater than 30, mITT, 3 mg/kg), the “change in TAV and PAV versus placebo” value is on record as “obtained statistical significance versus placebo”. In addition, in data set [1] (setting [7]), the “PAV LS mean change (ANCOVA)” value was −0.963 and the “TAV LS mean change (ANCOVA)” value is on record as −6.258. Further, in data set [1] (setting [8]), the “PAV LS mean change (ANCOVA)” value is −0.619 and the “TAV LS mean change (ANCOVA)” value was −3.429. For the same compound, in data set [1] (setting [9]), the “PAV LS mean change (ANCOVA)” value is listed as “+0.177” and the “TAV LS mean change (ANCOVA)” value was −2.726. Further, the “shape of dose-effect curve” value in data set [1] (humans, 3, 6, 12 mg/kg) is recorded as “inverted U-shaped dose-effect curve”. For the same compound, the “reduction in PAV and TAV versus baseline” value in data set [1] (mITT population) is “statistically significant and comparable magnitude of reduction in PAV and TAV versus baseline”. In data set [1] (mPP population, 3 mg/kg), the “TAV and PAV versus placebo” value is given as “did achieve nominal statistical significance versus placebo”. For the same compound, the “potency (plasma total cholesterol increase) relative to ETC-216” value in data set [2] (CER-001 at 3 mg/kg) is reported as “comparable to ETC-216 at 15 mg/kg”. In data set [2] (setting [10]), the “plasma apolipoprotein A-I after IV administration” value is “increases in a dose-dependent manner”, the “plasma phospholipids after IV administration” value is “increase in a dose dependent manner” and the “plasma total cholesterol after IV administration” value was “increases in a dose-dependent manner”. For the same compound, the “slope ratio of phospholipids and ApoA-I dose response curves” value in data set [2] (in vivo) came to 2.8. Further, the ABCA1 protein level result in data set [3] is reported as “significant decrease of ABCA1 protein level”. The “ABCA1 mRNA level” value in data set [4] is reported as “two-fold decrease”. For the same compound, in the data set on ABCA1 in mouse liver, the “liver ABCA1 protein level” value is reported as “increase in ABCA1 protein level”. The “vascular inflammation and atherosclerosis” value in data set [5] is “reduce vascular inflammation and promote regression of diet-induced atherosclerosis”. Besides, in data set [6] (healthy volunteers, single IV doses 0.25 to 45 mg/kg), the cholesterol mobilization entry was “increased cholesterol mobilization with increasing doses”. Moreover, the “dose level above which a transient increase of triglycerides was observed” value in data set [6] (human, in vivo, iv) is recorded as “greater than 15 mg/kg”.
As for `OC[C@H]1O[C@@H]2O[C@H]3[C@H](O)[C@@H](O)[C@@H](O[C@H]4[C@H](O)[C@@H](O)[C@@H](O[C@H]5[C@H](O)[C@@H](O)[C@@H](O[C@H]6[C@H](O)[C@@H](O)[C@@H](O[C@H]7[C@H](O)[C@@H](O)[C@@H](O[C@H]8[C@H](O)[C@@H](O)[C@@H](O[C@H]1[C@H](O)[C@H]2O)O[C@@H]8CO)O[C@@H]7CO)O[C@@H]6CO)O[C@@H]5CO)O[C@@H]4CO)O[C@@H]3CO` [β-cyclodextrin, reference compound], the cholesterol efflux result with J774 macrophages was “dose-dependent increase”.

These data come from patent US20180203025A1, “HDL THERAPY MARKERS” (Cerenis Therapeutics Holding SA, priority 2014, published 2018).
